One series concerns the target T1, PDGFRβ (Homo sapiens, UniProt P09619).
T1 construct: expressed in transfected cells; host or cells: CHO cells
The series is described as follows: PDGFRβ cell-based assay (ELISA, phosphor-/total PDGFRβ in transfected CHO cells). As to conditions: compound at 100 nM; CHO cells transfected with full length PDGFRβ; FBS stimulation; read-out: % PDGFRβ kinase activity remains. An excerpt: A standard cell-based assay for PDGFRβ kinase activity can be used to test or screen the compounds of this invention and to identify PDGFRβ antagonists. In this example, ELISA kits (R&D Systems, Inc., Minneapolis, Minn. 55413, USA) were used.
The activity of PDGFRβ in cells depended on its autophosphorylation level by various factors including growth factors. In order to induce the cell to produce PDGFRβ, full length of PDGFRβ sequence was cloned into PC-DNA3.1 vector, the plasmid was then transfected into CHO cells. After 48 hours, the expression of PDGFRβ in transfected CHO cells was confirmed by regular western blotting.
A compound to be tested was first dissolved in DMSO to a concentration of 10 mM and stored at −20° C. One day before the screening, CHO cells transfected with full length PDGFRβ plasmid were grown in DMEM medium without the presence of serum. On the day of screening procedure, the compounds with various concentration in DMSO (from 0.5 nM to 500 nM) were added into DMEM medium, two hours later, 20% of FBS (Fetal Bovine Serum) was added into the medium to stimulate the production of phosphor-PDGFRβ. Cell lysate from approximately 5×10^5 transfected CHO cells were reacted with anti-phosphor PDGFRβ or anti-total PDGFRβ antibody in 96 well plates, in the presence of detection antibody. The phosphor-PDGFRβ or total PDGFRβ were detected with Streptavidin-HRP (R&D Systems), followed by chemiluminescent detection. The level of PDGFRβ kinase activity was quantified as the ratio between the amount of phosphor- and that of total PDGFRβ proteins.
For orientation: An ELISA detects its analyte on a solid surface through an enzyme-linked reagent.

Another series deals with T2, c-Met (Homo sapiens, UniProt P08581).
T2 construct: expressed in transfected cells; host or cells: CHO cells
T2 sequence (P08581 25-1390): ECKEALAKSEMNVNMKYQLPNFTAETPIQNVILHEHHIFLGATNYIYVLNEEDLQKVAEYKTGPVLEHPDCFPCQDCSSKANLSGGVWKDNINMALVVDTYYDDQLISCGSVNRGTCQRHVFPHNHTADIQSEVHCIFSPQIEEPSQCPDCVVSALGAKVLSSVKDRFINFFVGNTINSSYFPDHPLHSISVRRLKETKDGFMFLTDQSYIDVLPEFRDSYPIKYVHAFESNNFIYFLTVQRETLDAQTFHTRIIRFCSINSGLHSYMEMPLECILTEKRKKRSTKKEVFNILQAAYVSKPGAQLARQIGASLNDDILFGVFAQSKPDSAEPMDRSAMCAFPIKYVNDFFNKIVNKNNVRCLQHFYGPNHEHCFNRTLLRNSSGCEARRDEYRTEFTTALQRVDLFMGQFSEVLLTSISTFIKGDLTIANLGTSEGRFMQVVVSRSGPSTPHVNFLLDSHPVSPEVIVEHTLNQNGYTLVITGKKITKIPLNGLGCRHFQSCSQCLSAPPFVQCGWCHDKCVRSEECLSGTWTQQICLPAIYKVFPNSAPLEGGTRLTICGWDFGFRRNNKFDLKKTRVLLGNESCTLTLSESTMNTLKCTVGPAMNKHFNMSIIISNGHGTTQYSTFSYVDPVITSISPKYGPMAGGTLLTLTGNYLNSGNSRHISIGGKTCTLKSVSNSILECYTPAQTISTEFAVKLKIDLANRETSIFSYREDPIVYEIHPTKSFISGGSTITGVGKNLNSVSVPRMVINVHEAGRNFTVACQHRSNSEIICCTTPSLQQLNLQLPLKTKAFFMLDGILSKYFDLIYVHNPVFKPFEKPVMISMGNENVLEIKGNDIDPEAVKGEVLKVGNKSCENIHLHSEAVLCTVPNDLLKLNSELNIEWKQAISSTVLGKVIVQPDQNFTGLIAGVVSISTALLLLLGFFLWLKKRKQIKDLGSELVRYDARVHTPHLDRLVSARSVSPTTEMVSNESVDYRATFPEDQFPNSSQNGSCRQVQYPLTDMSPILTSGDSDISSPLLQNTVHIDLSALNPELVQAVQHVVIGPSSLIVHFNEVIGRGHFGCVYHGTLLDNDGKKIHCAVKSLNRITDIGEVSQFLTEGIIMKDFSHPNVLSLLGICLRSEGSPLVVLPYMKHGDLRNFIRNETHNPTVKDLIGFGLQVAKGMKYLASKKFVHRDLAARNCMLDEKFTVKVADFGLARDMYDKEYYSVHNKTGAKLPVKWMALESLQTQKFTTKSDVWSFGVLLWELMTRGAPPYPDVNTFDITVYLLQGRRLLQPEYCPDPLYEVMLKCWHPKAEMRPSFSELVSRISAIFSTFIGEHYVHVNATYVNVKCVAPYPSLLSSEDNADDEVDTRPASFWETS
The series is described as follows: c-Met cell-based assay (ELISA, phosphor-/total c-Met in transfected CHO cells, HGF stimulated). Particulars: compound at 100 nM; CHO cells transfected with full length c-Met; HGF 100 ng/mL. An excerpt: A standard cell-based assay for c-Met kinase activity can be used to test or screen the compounds of this invention and to identify c-Met antagonists. In this example, ELISA kits (R&D Systems, Inc., Minneapolis, Minn. 55413, USA) were used.
The activity of c-Met in cells depended on its autophosphorylation level by it specific growth factor-Hepatocyte growth factor (HGF). In order to induce the cell to produce c-Met, full length of c-Met sequence was cloned into PC-DNA3.1 vector, the plasmid was then transfected into CHO cells. After 48 hours, the expression of c-Met in transfected CHO cells was confirmed by regular western blotting.
A compound to be tested was first dissolved in DMSO to a concentration of 10 mM and stored at −20° C. One day before the screening, CHO cells transfected with full length c-Met plasmid were grown in DMEM medium without the presence of serum. On the day of screening procedure, the compounds with various concentration in DMSO (from 0.5 nM to 500 nM) were added into DMEM medium, two hours later, Hepatocyte growth factor (HGF) was added into the medium at the concentration of 100 ng/mL to stimulate the production of phosphor-c-Met. Cell lysate from approximately 5×10^5 transfected CHO cells were reacted with anti-phosphor c-Met or anti-total c-Met antibody in 96 well plates, in the presence of detection antibody. The phosphor-c-Met or total c-Met were detected with Streptavidin-HRP (R&D Systems), followed by chemiluminescent detection. The level of c-Met kinase activity was quantified as the ratio between the amount of phosphor- and that of total c-Met proteins.

Series [1] is described as follows: Oral bioavailability study, Group 1 (mice). The format is in vivo, male ICR mice. The method, then: Oral pharmacokinetic studies were performed on Example 2. Specifically, this compound was dissolved in PEG-400 (2:1 mixture of PEG400 and 0.01N HCL (v/v)) and administered orally to male ICR mice at a dose of 50 mg/kg. Mice blood was obtained via eyeball enucleation at 0.25, 0.5, 1, 2, 3, 4, 6, 8, 12 and 24 hours after administration. The concentration of Example 2 in blood was determined using appropriate internal standards and reverse phase HPLC with UV detection.
Control blood samples were also used to identify compound-specific peaks. The oral bioavailability was determined by comparing the dose corrected areas under plasma-concentration time curve (AUC) to infinity for Example 2, given orally and intravenously in mice.

The nature of series [2]: Oral bioavailability study, Group 2 (rats). Type of series: in vivo, male SD rat. The method, then: Oral pharmacokinetic studies on rats were performed on Example 2, this compound was dissolved in PEG-400 (2:1 mixture of PEG400 and 0.01N HCL (v/v)) and administered orally to male SD rat at a dose of 50 mg/kg. Rat blood was obtained from tail vein at 0.25, 0.5, 1, 2, 3, 4, 6, 8, 12, and 24 hours after administration. The blood concentration of Example 2 was determined using appropriate internal standards and reverse phase HPLC with UV detection. Control blood samples were also run to identify compound-specific peaks. The oral bioavailability was determined by comparing the dose corrected areas under plasma-concentration time curve (AUC) to infinity for Example 2, given orally and intravenously in rats.

The subject of series [3] is HT-29 human colon cancer cells. The series is described as follows: In vivo anti-tumor efficacy, HT-29 xenograft. Particulars: HT-29 s.c. in nu/nu Balb/c athymic mice, 50 mg/kg once per day oral gavage. The method, then:
Female (nu/nu) Balb/c athymic mice at 4-6 weeks of age were injected subcutaneously (s.c.) with MDA-MB-231 human breast cancer cells, A549 human non-small cell lung cancer cells, BEL7401 human liver cancer cells, HT-29 human colon cancer cells, or MKN-45 human gastric cancer cells (ATCC, 5×10^6 cells suspended in 100 μl DMEM medium). Treatment was initiated after the tumor mass grown from subcutaneous implanted tumor cells reaches a median volume of 200-400 mm^3. Mice were randomized into groups with three in each group such that the median tumor volume is nearly equal among all groups. […] Tumor volumes were assessed at least twice weekly by caliper measurement from the start of treatment. Tumor volume was calculated using the formula ½×L×W^2 (L: length of tumor's long axis, W: length of tumor's short axis). […] The efficacy of compounds in reducing tumor growth was assessed by the index Tumor Growth Inhibition (TGI). TGI for a given treatment period was calculated using the group mean tumor volumes according to the formula: TGI=100×(Vvehicle—group−VTreatment—group)÷VVehicle—group wherein VVehicle—group representing the mean tumor volume for the group treated with vehicle and VTreatment—group representing the mean tumor volume of the group treated with a compound.

Where only a bound is given, the exact number is not on record here.

T1 sequence (P09619 33-1106): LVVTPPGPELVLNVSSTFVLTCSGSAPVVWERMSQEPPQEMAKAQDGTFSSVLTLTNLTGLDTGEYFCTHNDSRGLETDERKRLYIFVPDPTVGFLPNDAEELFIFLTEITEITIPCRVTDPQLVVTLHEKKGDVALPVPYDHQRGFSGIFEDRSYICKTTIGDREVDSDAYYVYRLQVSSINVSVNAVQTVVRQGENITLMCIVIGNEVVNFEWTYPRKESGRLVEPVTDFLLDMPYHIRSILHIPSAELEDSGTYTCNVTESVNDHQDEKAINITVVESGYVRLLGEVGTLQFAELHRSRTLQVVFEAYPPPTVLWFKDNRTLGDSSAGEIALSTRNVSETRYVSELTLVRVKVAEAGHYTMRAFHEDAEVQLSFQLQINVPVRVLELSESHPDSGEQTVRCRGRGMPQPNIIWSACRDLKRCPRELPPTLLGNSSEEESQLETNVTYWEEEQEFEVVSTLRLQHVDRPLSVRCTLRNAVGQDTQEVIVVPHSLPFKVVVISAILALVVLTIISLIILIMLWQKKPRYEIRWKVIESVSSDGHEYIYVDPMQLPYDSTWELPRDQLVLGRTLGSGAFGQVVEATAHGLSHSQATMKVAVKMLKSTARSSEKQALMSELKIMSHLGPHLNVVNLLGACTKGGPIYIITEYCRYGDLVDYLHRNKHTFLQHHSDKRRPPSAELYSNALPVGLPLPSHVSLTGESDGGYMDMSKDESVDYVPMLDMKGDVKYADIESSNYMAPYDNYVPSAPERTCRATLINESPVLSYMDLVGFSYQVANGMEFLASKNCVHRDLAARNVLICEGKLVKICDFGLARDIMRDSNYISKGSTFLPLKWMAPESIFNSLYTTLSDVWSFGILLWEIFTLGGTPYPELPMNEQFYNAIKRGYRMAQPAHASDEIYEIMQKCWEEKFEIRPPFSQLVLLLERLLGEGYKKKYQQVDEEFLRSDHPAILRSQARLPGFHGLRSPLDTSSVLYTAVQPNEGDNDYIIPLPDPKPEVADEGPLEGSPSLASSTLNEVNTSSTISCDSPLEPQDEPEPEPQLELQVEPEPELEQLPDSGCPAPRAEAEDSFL

The bioavailability is dose-corrected exposure relative to a reference, in per cent. In general, half-life refers to the time needed for the level to fall by half in the phase considered. High values mean slow loss, low ones fast loss. As for `Cl.[2H]C([2H])(c1ccnc(N)c1)n1ccc2c(NC(=O)Nc3cc(Cl)ccc3OC)cccc21` [Example 2, 1-[1-[(2-amino-4-pyridyl)-dideuteriomethyl]indol-4-yl]-3-(5-chloro-2-methoxyphenyl)urea hydrochloride], the remaining activity at 0.1 µM at PDGFRβ was under 70%. Also, at c-Met, the “% C-Met kinase activity remains” value is recorded as “B (the percentage is greater or equal to 70%)”. In addition, the “amount detected in blood after oral dosing” value was “substantial amounts” in series [1] (mice, 0.25 hour after 50 mg/kg oral dosing) and “substantial amounts” in series [2] (rat study, 0.25 hours after 50 mg/kg oral dosing). In addition, the bioavailability is over 88% in series [1] (mouse, plasma, male ICR mice, 50 mg/kg oral, AUC to infinity oral vs intravenous) and over 67% in series [2] (plasma, male SD rat, 50 mg/kg oral, AUC to infinity oral vs intravenous). Further, the half-life in series [1] (mouse, whole blood, male ICR mice, 50 mg/kg oral) was 2.3 to 3.5 h; in series [2] (whole blood, male SD rat, 50 mg/kg oral) it was 2 to 3 h. Besides, the “Tumor Growth Inhibition (TGI)” value in series [3] is “A (the TGI is greater or equal to 50%)”.

`[2H]C(c1c[nH]c2ncccc12)N1CCc2c(NC(=O)Nc3cc(Cl)ccc3F)cccc21` (centres unmarked) [Example 19, 1-(5-Chloro-2-fluorophenyl)-3-[1-[deuterio(1H-pyrrolo[2,3-b]pyridin-3-yl)methyl]indolin-4-yl]urea]: the remaining activity at 0.1 µM on PDGFRβ is at least 70%. The “% C-Met kinase activity remains” value at c-Met was “B (the percentage is greater or equal to 70%)”.

For the molecule `[2H]C(c1c[nH]c2ncccc12)n1ccc2c(NC(=O)Nc3cc(Cl)ccc3F)cccc21` (centres unmarked) [Example 20, 1-(5-chloro-2-fluorophenyl)-3-[1-[deuterio(1H-pyrrolo[2,3-b]pyridin-3-yl)methyl]indol-4-yl]urea], on PDGFRβ, the remaining activity at 0.1 µM was under 70%. Also, on c-Met, the “% C-Met kinase activity remains” value is recorded as “A (the percentage of kinase activity remains is below 70%)”.

Consider `[2H]C(c1c[nH]c2ncccc12)N1CCc2c(NC(=O)Nc3cccc(C)c3)cccc21` (centres unmarked) [Example 21, 1-[1-[Deuterio(1H-pyrrolo[2,3-b]pyridin-3-yl)methyl]indolin-4-yl]-3-(m-tolyl)urea], for which the remaining activity at 0.1 µM at PDGFRβ is under 70%. Also, the “% C-Met kinase activity remains” value at c-Met is “B (the percentage is greater or equal to 70%)”.

Consider `[2H]C(c1c[nH]c2ncccc12)n1ccc2c(NC(=O)Nc3cccc(C)c3)cccc21` (centres unmarked) [Example 22, 1-[1-[deuterio(1H-pyrrolo[2,3-b]pyridin-3-yl)methyl]indol-4-yl]-3-(m-tolyl)urea], for which the remaining activity at 0.1 µM on PDGFRβ is under 70%. Moreover, at c-Met, the “% C-Met kinase activity remains” value is on record as “A (the percentage of kinase activity remains is below 70%)”.

These data come from patent publication US20130165475A1, “DEUTERIUM-ENRICHED HETEROCYCLIC COMPOUNDS AS KINASE INHIBITORS” (ASCEPION PHARMACEUTICALS, INC., priority 2010, published 2013).
